Measurements taken from patent publication US20070092503A1, “Human alkaline sphingomyelinase and use thereof” (priority 2003, published 2007).

Experiments:
human Alk-Smase [1] = molecular target: T1, human Alk-Smase (Homo sapiens, UniProt Q6UWV6); experiment: Alk-Smase activity in the presence of metal ions, detergents, bile salts, glutathione; assay type: biochemical
T1 construct: Human Alk-Smase has now been purified from small intestinal content; from tissue; host or cells: human small intestinal (ileostomy) content
T1 sequence (Q6UWV6 22-458): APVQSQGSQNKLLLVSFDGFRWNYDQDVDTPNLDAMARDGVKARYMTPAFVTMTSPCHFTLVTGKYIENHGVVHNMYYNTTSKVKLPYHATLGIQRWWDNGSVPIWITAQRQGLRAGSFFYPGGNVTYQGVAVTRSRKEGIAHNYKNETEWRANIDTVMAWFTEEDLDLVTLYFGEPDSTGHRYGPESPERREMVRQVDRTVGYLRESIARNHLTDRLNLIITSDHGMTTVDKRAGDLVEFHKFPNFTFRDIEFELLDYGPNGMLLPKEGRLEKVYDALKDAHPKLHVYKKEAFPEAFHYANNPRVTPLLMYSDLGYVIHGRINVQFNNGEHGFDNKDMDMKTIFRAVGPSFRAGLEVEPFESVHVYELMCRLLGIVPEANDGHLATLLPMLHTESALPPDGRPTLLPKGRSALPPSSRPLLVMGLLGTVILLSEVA
Experimental: As bile salts are important factors for lipid digestion, the effects of different bile salts on human Alk-Smase were investigated. […] The activities were determined in the presence of different concentrations of bile salts.

human Alk-Smase [2] = molecular target: T1, human Alk-Smase; experiment: as above; assay type: biochemical; remark: listed apart in the source
bacterial neutral Smase = conditions: reduced form
[3] = test system: HT29 human colon cancer cells; experiment: Proliferation of HT29 colon cancer cells, WST reagent; assay type: cell-based; conditions: for effect on proliferation / cell growth of HT29 cells: different doses, 18 h, WST reagent; for effect on DNA synthesis of HT-29 cells: enzyme added to cells in culture
Experimental: (§1) HT29 human colon cancer cells were incubated in RMPI-1640 medium with L-glutamine, containing antibiotics and 10% (v/v) heat inactivated fetal calf serum. At the exponential growth phase, the cells were incubated with purified rat Alk-Smase at different doses for 18 h. The cell proliferation rates were measured by WST reagent. Results are Mean± SD of three individual duplicate experiments.
Experimental conditions for the antiproliferative inhibition were that HT 29 cells were incubated with rat Alk-Smase at different doses for 18 h. The cell proliferation rates were measured by WST reagent.
as §1, with “L-glutamine” for “L-glutamine,”, “Mean±SD” for “Mean± SD”

[4] = Lysophospholipase test with 14C-palmitoyl labelled lysophosphatidylcholine, TLC separation; assay type: biochemical
Experimental: At present the most intriguing functional similarity between Alk-Smase and NPP is the earlier observation that NPP2 has lysophospholipase D activity (M Umezo-Gozo et al J Cell Biol 2002; 158:227-33). To determine whether Alk-Smase also has lysophospholipase D activity, a trace amount of ^14C-palmitoyl labelled 1palmitoyl-lysosphosphatidylcholine was incubated with Alk-Smase using the optimal incubation conditions previously described (R D Duan and Å Nilsson Methods Enzymol 2000; 311:276-86). Lipids were then extracted according to known methods (Bligh and Dyer J Biochem Physiol 1959; 37:911-917), and separated on silica gel G plates that were developed in chloroform:methanol:water:acetic acid 25:20:0.3:3. The silica gel separates lysophosphatidylcholine and lysophosphatidic acid that are formed if there is a lysophospholipase D and monoglyceride formed by lysophospholipase C. […] It is therefore further disclosed herein that Alk-Smase may also influence cellular functions by removing lysophosphatidylcholine which can then not be converted to lysophosphatidic acid. Lysophosphatidic acid is a metabolite that stimulates growth of colon tumour cells. Our earlier studies have shown that Alk-Smase is not a general phosphlipase C since it has low activity against phosphatidylcholine (RD Duan, A Nilsson Methods Enzymol 2000; 311:276-86).

Cos-7 cells = experiment: Alk-Smase activity of transfected cells (cell lysate and medium); assay type: cell-based
Experimental: Cos 7 cells are transfected with either the wild type of Alk-Smase cDNA (sequence 21-1397 of ID No 5, reading frame) which encodes Seq ID No 4, or transfected with the Alk-Smase cDNA sequence from 21-1285 (C-truncated), which encodes a 415 amino acid sequence (Seq ID No 6). After transfection, the Alk-Smase activity in the medium and in the cell lysate was determined.
pCMV-sports6-Smase is transfected into mammalian Cos-7 cells. To transfect the cells with pCMV-sports6-Smase 4×10^5 Cos-7 cells are seeded in a 25 cm^2 flask in 4 ml of Dulbecco's modified Eagle's medium with 10% heat inactivated fetal calf serum and 2 mM Glutamine.
The cells are incubated until 90% confluent.
Cells are then transfected with 5 microgram pCMV-sports6-Smase and 16 microgram lipofectamine 2000™ in each flask followed by incubation for 48 h.
Untransfected cells are exposed to lipofectamine and treated the same as above.
At the end of the incubation, medium is collected and cells are lysed by a 50 mM Tris-HCl buffer containing 1 mM PMSF, 2 mM EDTA, 0.5 mM Dtt, 10 microgram/ml leupeptin, 10 microgram/ml aprotinine and 10 mM TC.
Cells are kept on ice, e.g., for 10 minutes, and then sonicated for 10 sec.
After centrifugation at 12000 g for 10 minutes at 4° C., human Alk-Smase activity and protein concentrations were determined.
Cos-7 cells transfected with a mock-vector is used as a control.

[5] = Characterisation of Alk-Smase: sphingomyelin hydrolysis (pH dependence, hydrolytic capacity); conditions: for hydrolytic capacity (Vmax, Lineweaver-Burk plot): sphingomyelin hydrolysed: by 1 mg of the enzyme in one hour
Experimental: To distinguish whether the enzyme was different from the Mg dependent neutral Smase, activity at pH 7.5 in the presence of 4 mM Mg2+ in comparison wit pH 8.5 in the presence of 2 mM EDTA was assayed.

C[C@H](CCC(=O)NCCC[N+](C)(C)CCCS(=O)(=O)[O-])[C@H]1CC[C@H]2[C@@H]3[C@H](O)C[C@@H]4C[C@H](O)CC[C@]4(C)[C@H]3C[C@H](O)[C@]12C [CHAPS]
effect on TC stimulation of Alk-Smase (human Alk-Smase [1]): blocked the stimulatory effect of TC | effect on Alk-Smase activity (human Alk-Smase [1]; very low concentration (0.025 mM)): only slightly increased the activity

[Ca+2] [Ca2^+]
effect of increasing concentrations of divalent cation on Alk-Smase activity (human Alk-Smase [2]): slightly increased

O=C(O)CN(CCN(CC(=O)O)CC(=O)O)CC(=O)O [EDTA]
inhibition of Alk-Smase by EDTA (human Alk-Smase [1]): not inhibited | reversal of the Zn2+ inhibition of Alk-Smase (human Alk-Smase [1]; 2 mM EDTA): Most of the inhibitory effect of Zn2+ was reversed

[Mg+2] [Mg]
effect of increasing concentrations of divalent cation on Alk-Smase activity (human Alk-Smase [2]): slightly increased

C[C@H](CCC(=O)NCCS(=O)(=O)O)[C@H]1CC[C@H]2[C@@H]3[C@H](O)C[C@@H]4C[C@H](O)CC[C@]4(C)[C@H]3CC[C@]12C [TCDC, taurochenodeoxycholate]
maximal stimulating effect of bile salt on human Alk-Smase (human Alk-Smase [1]; maximum at the CMC of each bile salt): far more effective than other bile salts

[Zn+2] [Zn2^+]
IC50 (human Alk-Smase [1]; read-out: concentration giving 50% inhibition of Alk-Smase activity): 15 µM

N[C@@H](CCC(=O)N[C@@H](CS)C(=O)NCC(=O)O)C(=O)O [glutathione]
reduction of Alk-Smase activity (human Alk-Smase [1]; 7.5 mM glutathione, reduced form): 1% | effect on Alk-Smase activity (in words) (human Alk-Smase [1]; reduced form of glutathione): only slightly reduced | reduction of neutral Smase activity (bacterial neutral Smase; 7.5 mM glutathione): 98% | concentration above which neutral Smase activity is sharply abolished (bacterial neutral Smase): higher than 5 mM

Triton X 100
effect on human Alk-Smase activity (human Alk-Smase [1]; in the presence or absence of TC (10 mM)): strongly inhibits

B1: rat Alk-Smase: purified rat intestinal alkaline sphingomyelinase (protein, UniProt Q5EZ72 22-439, looked up)
Ectonucleotide …: GPVQRQQQHKLLLVSFDGFRWNYDQDVETPNLDSMAQEGVKARYMTPAFVTMTSPCHFTLVTGKYIENHGVVHNMFYNTTNKVRLPYHATLGIQRWWDNGSIPIWITAQRQGLKTGSFFYPGGNVTYQGEAVTMSRKEGVLHNYKNETEWRANVDTVMKWFTEEDVSLVTLYFGEPDSTGHKYGPESQERKDMVKQVDRTVGYLRDSIKRHHLTDSLNLIITSDHGMTTVNKKASDLVEFHKFPNFTFRDIEFELLDYGPNGMLIPKEGMLEKVYSVLKDAHPRLHVYKKEDFPKTFHYANNPRITSLLMYSDLGYVIHGRVNVQFNSGEHGFDNQDMDMKTIFRAVGPSFKAGLEVEPFESVHVYELMCQLLGIVPEPNDGHPGVLQPMLRSGSPLSRQHHLVVVLMGILTGLAKVV
effect on proliferation / cell growth of HT29 cells [3]: dose-dependently inhibited cell growth | effect on proliferation / cell growth of HT29 cells ([3]; listed as rat alkaline Smase): inhibit proliferation | effect on DNA synthesis of HT-29 cells [3]: decreased DNA synthesis

B2: human Alk-Smase: human intestinal alkaline sphingomyelinase, 458 amino acid protein purified from small intestinal content (protein, listed as Homo sapiens)
chain: MRGPAVLLTVALATLLAPGAGAPVQSQGSQNKLLLVSFDGFRWNYDQDVDTPNLDAMARDGVKARYMTPAFVTMTSPCHFTLVTGKYIENHGVVHNMYYNTTSKVKLPYHATLGIQRWWDNGSVPIWITAQRQGLRAGSFFYPGGNVTYQGVAVTRSRKEGIAHNYKNETEWRANIDTVMAWFTEEDLDLVTLYFGEPDSTGHRYGPESPERREMVRQVDRTVGYLRESIARNHLTDRLNLIITSDHGMTTVDKRAGDLVEFHKFPNFTFRDIEFELLDYGPNGMLLPKEGRLEKVYDALKDAHPKLHVYKKEAFPEAFHYANNPRVTPLLMYSDLGYVIHGRINVQFNNGEHGFDNKDMDMKTIFRAVGPSFRAGLEVEPFESVHVYELMCRLLGIVPEANDGHLATLLPMLHTESALPPDALLVADGPCLPSLSQAKGCMPLSPAAPTPAWLLWCW
formation of lysophosphatidic acid (lysophospholipase D activity) [4]: not demonstrated | lysophosphatidylcholine degraded to 14C-monoglyceride ([4]; in one hour, optimal incubation conditions): 80% | effect on proliferation / cell growth of HT29 cells [3]: inhibit proliferation | effect on DNA synthesis of HT-29 cells [3]: decreased DNA synthesis | increase of human Alk-Smase activity in the medium (Cos-7 cells; Cos-7 cells transfected with pCMV-sports6-Smase, 48 h): 5 fold | activity at pH 8.5 with 2 mM EDTA compared with pH 7.5 with 4 mM Mg2+ [5]: significantly higher | hydrolytic capacity (Vmax, Lineweaver-Burk plot): sphingomyelin hydrolysed [5]: 11 mmol | hydrolytic capacity (Vmax, Lineweaver-Burk plot): sphingomyelin hydrolysed ([5]; listed as Alk-Smase): about 11 mmole | activity at pH 7.5 relative to maximal activity ([5]; pH 7.5 versus pH 8.5): about 68%

B3: amino acid 1-415: C-truncated human Alk-Smase, 415 amino acid sequence encoded by cDNA 21-1285 (protein, listed as Homo sapiens)
chain: MRGPAVLLTVALATLLAPGAGAPVQSQGSQNKLLLVSFDGFRWNYDQDVDTPNLDAMARDGVKARYMTPAFVTMTSPCHFTLVTGKYIENHGVVHNMYYNTTSKVKLPYHATLGIQRWWDNGSVPIWITAQRQGLRAGSFFYPGGNVTYQGVAVTRSRKEGIAHNYKNETEWRANIDTVMAWFTEEDLDLVTLYFGEPDSTGHRYGPESPERREMVRQVDRTVGYLRESIARNHLTDRLNLIITSDHGMTTVDKRAGDLVEFHKFPNFTFRDIEFELLDYGPNGMLLPKEGRLEKVYDALKDAHPKLHVYKKEAFPEAFHYANNPRVTPLLMYSDLGYVIHGRINVQFNNGEHGFDNKDMDMKTIFRAVGPSFRAGLEVEPFESVHVYELMCRLLGIVPEANDGHLATLLPMLHT
Alk-Smase activity produced, C-truncated versus full sequence cDNA (Cos-7 cells; transfected cells, FIG. 13): higher
